The text below walks through data of ChEMBL document CHEMBL4265872, “Around the macrolide - Impact of 3D structure of macrocycles on lipophilicity and cellular accumulation” (Eur J Med Chem, 2017).

The nature of data set [1]: Chromatographic hydrophobicity, logD of the compound at pH 7.4 by fast-gradient RP-HPLC method. It counts as physicochemical. Conditions: buffer.
The nature of data set [2]: Drug accumulation in human NCI-H292 cells at 3 to 10 uM incubated for 3 hrs by LC-MS analysis relative to azithromycin. Conditions: nci-h292, 3 h. It counts as ADME, cell-based.

`CC[C@H]1OC(=O)[C@H](C)[C@@H](O[C@H]2C[C@@](C)(OC)[C@@H](O)[C@H](C)O2)[C@H](C)[C@@H](O[C@@H]2O[C@H](C)C[C@H](N(C)C)[C@H]2O)[C@](C)(O)C[C@@H](C)CN(C)[C@H](C)[C@@H](O)[C@]1(C)O` [AZITHROMYCIN] displayed a chromatographic logD in data set [1] of 2.11. The compound also came in with a Drug uptake in data set [2] of 100%.
In data set [1], `CCCCC(=O)NCCCN1C[C@H](C)C[C@@](C)(O)[C@H](O[C@@H]2O[C@H](C)C[C@H](N(C)C)[C@H]2O)[C@@H](C)[C@H](O[C@H]2C[C@@](C)(OC)[C@@H](O)[C@H](C)O2)[C@@H](C)C(=O)O[C@H](CC)[C@@](C)(O)[C@H](O)[C@H]1C` showed a chromatographic logD of 2.72. The Drug uptake in data set [2] turned out to be 7%.
In the same order, the values of `CC[C@H]1OC(=O)[C@H](C)[C@@H](O[C@H]2C[C@@](C)(OC)[C@@H](O)[C@H](C)O2)[C@H](C)[C@@H](O[C@@H]2O[C@H](C)C[C@H](N(C)C)[C@H]2O)[C@](C)(O)C[C@@H](C)CN(C)[C@H](C)[C@@H](OCCCNC(=O)c2c(C)nn(C)c2Cl)[C@]1(C)O` are 3.01 and 51%.
In the same order, the values of `CC[C@H]1OC(=O)[C@H](C)[C@@H](O[C@H]2C[C@@](C)(OC)[C@@H](OCCCNC(C)=O)[C@H](C)O2)[C@H](C)[C@@H](O[C@@H]2O[C@H](C)C[C@H](N(C)C)[C@H]2O)[C@](C)(O)C[C@@H](C)CN(C)[C@H](C)[C@@H](O)[C@]1(C)O` are 2.06 and 6%.
The matching figures for `CCC(=O)NCCCO[C@@H]1[C@@H](C)N(C)C[C@H](C)C[C@@](C)(O)[C@H](O[C@@H]2O[C@H](C)C[C@H](N(C)C)[C@H]2O)[C@@H](C)[C@H](O[C@H]2C[C@@](C)(OC)[C@@H](O)[C@H](C)O2)[C@@H](C)C(=O)O[C@H](CC)[C@@]1(C)O`: 2.74 and 41%.
In data set [1], `CCC(=O)NCCCO[C@H]1[C@H](C)[C@@H](O[C@@H]2O[C@H](C)C[C@H](N(C)C)[C@H]2O)[C@](C)(O)C[C@@H](C)CN(C)[C@H](C)[C@@H](O)[C@](C)(O)[C@@H](CC)OC(=O)[C@@H]1C` displayed a chromatographic logD of 1.6. In data set [2], this compound returned a Drug uptake of 22%.
In the same order, the values of `CCCCCCCC(=O)NCCCO[C@H]1[C@H](C)O[C@@H](O[C@H]2[C@H](C)[C@@H](O[C@@H]3O[C@H](C)C[C@H](N(C)C)[C@H]3O)[C@](C)(O)C[C@@H](C)CN(C)[C@H](C)[C@@H](O)[C@](C)(O)[C@@H](CC)OC(=O)[C@@H]2C)C[C@@]1(C)OC` are 4.1 and 357%.
The matching figures for `CC[C@H]1OC(=O)[C@H](C)[C@@H](O[C@H]2C[C@@](C)(OC)[C@@H](O)[C@H](C)O2)[C@H](C)[C@@H](O[C@@H]2O[C@H](C)C[C@H](N(C)C)[C@H]2OCCCNC(=O)c2c(C)nn(C)c2Cl)[C@](C)(O)C[C@@H](C)CN(C)[C@H](C)[C@@H](O)[C@]1(C)O`: 3.08 and 95%.
The matching figures for `CCC(=O)NCCCO[C@H]1[C@H](C)O[C@@H](O[C@H]2[C@H](C)[C@@H](O[C@@H]3O[C@H](C)C[C@H](N(C)C)[C@H]3O)[C@](C)(O)C[C@@H](C)CN(C)[C@H](C)[C@@H](O)[C@](C)(O)[C@@H](CC)OC(=O)[C@@H]2C)C[C@@]1(C)OC`: 2.54 and 15%.
`CCCCCCCC(=O)NCCCO[C@H]1[C@H](C)O[C@@H](O[C@H]2[C@H](C)[C@@H](O[C@@H]3O[C@H](C)C[C@H](N(C)C)[C@H]3O)[C@](C)(OC)C[C@@H](C)C(=O)[C@H](C)[C@@H](O)[C@](C)(O)[C@@H](CC)OC(=O)[C@@H]2C)C[C@@]1(C)OC` returned a chromatographic logD in data set [1] of 6.02. In addition, the Drug uptake in data set [2] is reported as 281%.
The matching figures for `CCCCCCCC(=O)NCCCN1C[C@H](C)C[C@@](C)(O)[C@H](O)[C@@H](C)[C@H](O)[C@@H](C)C(=O)O[C@H](CC)[C@@](C)(O)[C@H](O)[C@H]1C`: 3.49 and 63%.
In the same order, the values of `CC[C@H]1OC(=O)[C@H](C)[C@@H](O[C@H]2C[C@@](C)(OC)[C@@H](OCCCNC(=O)C3CCC3)[C@H](C)O2)[C@H](C)[C@@H](O[C@@H]2O[C@H](C)C[C@H](N(C)C)[C@H]2O)[C@](C)(O)C[C@@H](C)CN(C)[C@H](C)[C@@H](O)[C@]1(C)O` are 2.62 and 51%.
The matching figures for `CC[C@H]1OC(=O)[C@H](C)[C@@H](O[C@H]2C[C@@](C)(OC)[C@@H](O)[C@H](C)O2)[C@H](C)[C@@H](O[C@@H]2O[C@H](C)C[C@H](N(C)C)[C@H]2O)[C@](C)(OC)C[C@@H](C)C(=O)[C@H](C)[C@@H](O)[C@]1(C)O` [CLARITHROMYCIN]: 3.5 and 35%.
Compound `CCC(=O)NCCCN1C[C@H](C)C[C@@](C)(O)[C@H](O[C@@H]2O[C@H](C)C[C@H](N(C)C)[C@H]2O)[C@@H](C)[C@H](O[C@H]2C[C@@](C)(OC)[C@@H](O)[C@H](C)O2)[C@@H](C)C(=O)O[C@H](CC)[C@@](C)(O)[C@H](O)[C@H]1C` registered a chromatographic logD in data set [1] of 1.86. The compound also gave a Drug uptake in data set [2] of 0%.
In turn, `CC[C@H]1OC(=O)[C@H](C)[C@@H](O[C@H]2C[C@@](C)(OC)[C@@H](O)[C@H](C)O2)[C@H](C)[C@@H](O[C@@H]2O[C@H](C)C[C@H](N(C)C)[C@H]2O)[C@](C)(O)C[C@@H](C)CN(CCCNC(=O)c2c(C)nn(C)c2Cl)[C@H](C)[C@@H](O)[C@]1(C)O` registered a chromatographic logD in data set [1] of 2.2. In data set [2], this compound came in with a Drug uptake of 5%.
In the case of `CC[C@H]1OC(=O)[C@H](C)[C@@H](O[C@H]2C[C@@](C)(OC)[C@@H](O)[C@H](C)O2)[C@H](C)[C@@H](O[C@@H]2O[C@H](C)C[C@H](N(C)C)[C@H]2O)[C@](C)(OC)C[C@@H](C)/C(=N\O)[C@H](C)[C@@H](O)[C@]1(C)OCCCNC(C)=O`, the chromatographic logD in data set [1] was 2.94. This compound registered a Drug uptake in data set [2] of 9%.
The matching figures for `CCCCCCCC(=O)NCCCO[C@@H]1[C@@H](C)N(C)C[C@H](C)C[C@@](C)(O)[C@H](O[C@@H]2O[C@H](C)C[C@H](N(C)C)[C@H]2O)[C@@H](C)[C@H](O[C@H]2C[C@@](C)(OC)[C@@H](O)[C@H](C)O2)[C@@H](C)C(=O)O[C@H](CC)[C@@]1(C)O`: 5.18 and 756%.
In data set [2], `CC[C@H]1OC(=O)[C@H](C)[C@@H](O[C@H]2C[C@@](C)(OC)[C@@H](O)[C@H](C)O2)[C@H](C)[C@@H](O[C@@H]2O[C@H](C)C[C@H](N(C)C)[C@H]2O)[C@](C)(O)C[C@@H](C)CN(CCCNC(=O)COC)[C@H](C)[C@@H](O)[C@]1(C)O` gave a Drug uptake of 2%.
In data set [1], `CC[C@H]1OC(=O)[C@H](C)[C@@H](O[C@H]2C[C@@](C)(OC)[C@@H](O)[C@H](C)O2)[C@H](C)[C@@H](O[C@@H]2O[C@H](C)C[C@H](N(C)C)[C@H]2O)[C@](C)(O)C[C@@H](C)CN(CCCNC(=O)C2CCC2)[C@H](C)[C@@H](O)[C@]1(C)O` had a chromatographic logD of 2.31. This compound also registered a Drug uptake in data set [2] of 0%.
Compound `CC[C@H]1OC(=O)[C@H](C)[C@@H](OCCCNC(=O)c2c(C)nn(C)c2Cl)[C@H](C)[C@@H](O[C@@H]2O[C@H](C)C[C@H](N(C)C)[C@H]2O)[C@](C)(O)C[C@@H](C)CN(C)[C@H](C)[C@@H](O)[C@]1(C)O` yielded a Drug uptake in data set [2] of 59%.

The term chromatographic logD denotes lipophilicity estimated from chromatographic retention. Higher therefore signals higher lipophilicity.
